We go through 5 compounds from patent US8871899B2, “Control of viral-host membrane fusion with hydrogen bond surrogate-based artificial helices” (priority 2007, dated 2014).

Where a SMILES comes first, the peptide text is derived from it. Where no end group is shown, it is not given here. The star is where a group is joined. 4‑pentenoyl = C=CCCC(=O)*

For data set [1], the system named is IZN17 (stable model of the gp41 N-terminal three strand coiled-coil). The data set is described as follows: Fluorescence polarization-based competitive binding assay (displacement of fluorescein-labeled peptide 12 from IZN17). Also noted: species or system HIV-1. As to conditions: for Binding to IZN17, result in words: fluorescence polarization competition with probe 12. A general note: Polarisation of emitted light reports the rotation of a fluorescent probe.

Data set [2] deals with CHO[HIVe] (clone 7d2) cells expressing HXB2 envelope and tat cocultured with U373-MAGI cells. The format is cell-based, HIV-1. On the procedure: Cell-cell fusion (i.e., syncytium formation) was assayed by coculturing CHO[HIVe] (clone 7d2) cells expressing HXB2 envelope and tat with U373-MAGI cells (M. Emerman and A. Geballe, National Institutes of Health AIDS Research and Reference Reagent Program) in the presence of different concentrations of peptides 1-10. Cell fusion allows the expression of nuclear β-galactosidase from the U373-MAGI indicator cell line and can be quantitated by monitoring β-galactosidase activity. After an overnight incubation at 37° C. after coculture, β-galactosidase enzymatic activity was measured with the Mammalian β-galactosidase Chemiluminescent Assay Kit (Gal-Screen from Applied Biosystems). The peptide inhibitor concentrations at which activities were reduced by 50% (IC50) relative to control samples lacking peptide inhibitor were calculated by fitting data to the variable-slope-sigmoid equation using the Prism program.
Cell-cell fusion (i.e., syncytium formation) was assayed by co-culturing CHO[HIVe] […] Cell fusion allows the expression of nuclear β-galactosidase from the U373-MAGI indicator cell line and can be quantitated by monitoring β-galactosidase activity.

The nature of data set [3]: Circular dichroism spectroscopy (helicity). The settings on record: 10% trifluoroethanol in PBS buffer. The format is physicochemical. How it is done:
CD spectra were recorded on an AVIV 202SF CD spectrometer equipped with a temperature controller using 1 mm length cells and a scan speed of 5 nm/min. The spectra were averaged over 10 scans with the baseline subtracted from analogous conditions as that for the samples. The samples were prepared in 0.1× phosphate buffered saline (13.7 mM NaCl, 1 mM phosphate, 0.27 mM KCl, pH 7.4), containing 10% trifluoroethanol, with the final peptide concentration of 50-100 μM. The concentrations of unfolded peptides were determined by the UV absorption of the tyrosine residue at 276 nm in 6.0 M guanidinium hydrochloride aqueous solution. The helix content of each peptide was determined from the mean residue CD at 222 nm, [θ]222 (deg cm^2 dmol^−1) corrected for the number of amino acids. Percent helicity was calculated from the ratio [θ]222/[θ]max, where [θ]max=(−44000+250T)(1−k/n), with k=4.0 and n=number of residues. For details on θmax calculations for HBS helices, see Wang et al., “Evaluation of Biologically Relevant Short α-Helices Stabilized by a Main-chain Hydrogen-bond Surrogate,” J. Am. Chem. Soc. 128:9248-56 (2006), which is hereby incorporated by reference in its entirety.
It was conjectured that stabilization of this peptide in helical conformation with the HBS approach may increase its helicity and affinity for IZN17. […]
A general note: CD spectra are sensitive to the conformation of chiral molecules.

In data set [4] the test system is CHO[HIVe] (clone 7d2) cells expressing HXB2 envelope and tat cocultured with U373-MAGI cells. The settings on record: literature report; cited from earlier work.
Data set [5] addresses IZN17 (stable model of the gp41 N-terminal three strand coiled-coil). The data set is described as follows: Saturation binding of fluorescein-labeled peptide 12 with IZN17 (fluorescence polarization). Also noted: species or system HIV-1. As to conditions: saturation binding curve, PBS buffer at 25° C. On the procedure:
FIG. 14 is a graph showing the saturation binding curve of fluorescein-labeled peptide 12 with IZN17 in PBS buffer at 25° C.
The relative affinity of peptides 1-10 for IZN17 (i.e., peptide 11) was determined using a fluorescence polarization-based competitive binding assay (Eckert & Kim, “Design of Potent Inhibitors of HIV-1 Entry from the gp41 N-Peptide Region,” Proc. Nat'l Acad. Sci. U.S.A. 98:11187-92 (2001); Stephens et al., “Inhibiting HIV Fusion with a β-Peptide Foldamer,” J. Am. Chem. Soc. 127:13126-7 (2005), which are hereby incorporated by reference in their entirety) with fluorescein-labeled peptide 12, shown in FIG. 13. FIG. 14 is a graph showing the saturation binding curve of fluorescein-labeled peptide 12 with IZN17 in PBS buffer at 25° C.
A previously described fluorescence polarization assay was utilized to determine the in vitro binding affinity of unconstrained peptides and HBS helices for a stable model of the gp41 N-terminal three strand coiled-coil, IZN17, which contains the binding site for residues W628, W631, and 1635 (see Example 3, supra) (Eckert & Kim, “Design of Potent Inhibitors of HIV-1 Entry from the gp41 N-Peptide Region,” Proc. Nat'l Acad. Sci. U.S.A. 98:11187-92 (2001), which is hereby incorporated by reference in its entirety). […]

Turning to `CC[C@H](C)[C@H](NC(=O)[C@H](CCCCN)NC(=O)[C@H](CCCCN)NC(=O)[C@@H](NC(=O)[C@H](Cc1ccc(O)cc1)NC(=O)[C@H](CCC(=O)O)NC(=O)[C@H](CCC(=O)O)NC(=O)[C@@H](NC(=O)[C@H](CCCCN)NC(=O)[C@H](CCCCN)NC(=O)[C@H](CC(=O)O)NC(=O)[C@H](Cc1c[nH]c2ccccc12)NC(=O)[C@H](CCC(=O)O)NC(=O)[C@H](CCC(=O)O)NC(=O)[C@H](Cc1c[nH]c2ccccc12)NC(=O)[C@@H](NC(=O)[C@H](CCSC)NC(C)=O)[C@@H](C)O)[C@@H](C)CC)[C@@H](C)O)C(N)=O` [peptide 10, AcMTWEEWDKKIEEYTKKI—NH2] (Ac-MTWEEWDKKIEEYTKKI-NH2), the “Binding to IZN17, result in words” value in data set [1] is “bound IZN17 with a similar affinity as 9”. In data set [2] (concentrations up to 200 μM), the “Cell fusion inhibition, result in words” value is given as “remained ineffective in the cell culture assay”. As to `CC[C@H](C)[C@H](NC(=O)[C@H](CCC(=O)O)NC(=O)[C@H](CCCNC(=N)N)NC(=O)[C@H](CC(=O)O)NC(=O)[C@H](Cc1c[nH]c2ccccc12)NC(=O)[C@H](CCC(=O)O)NC(=O)[C@H](CCSC)NC(=O)[C@H](Cc1c[nH]c2ccccc12)NC(=O)[C@@H](NC(=O)[C@H](CCSC)NC(C)=O)[C@@H](C)O)C(=O)N[C@@H](CC(N)=O)C(=O)N[C@@H](CC(N)=O)C(=O)N[C@@H](Cc1ccc(O)cc1)C(=O)N[C@H](C(N)=O)[C@@H](C)O` [peptide 1, AcMTWMEWDREINNYT-NH2, reference compound] (Ac-MTWMEWDREINNYT-NH2), the “Helicity by CD, result in words” value in data set [3] is on record as “unstructured or very weakly helical”. Further, the Kd – broadly, the free concentration of one partner at which half of the binding sites on the other are occupied at equilibrium, for simple one-to-one binding – in data set [1] (PBS pH 7.4, 0.1% pluronic F-68, 25° C., 25 μM IZN17, 15 nM probe 12, values much lower than probe Kd are upper limits, read-out: Kd, binding affinity for IZN17 (competition assay)) turned out to be 37 µM. Besides, the “Activity in cell-cell fusion assays as previously shown (Sia et al.)” value in data set [4] is recorded as “ineffective in cell-cell fusion assays”. For the compound “Suc-MTWMEWDERINNYTC^Flu-NH2 [peptide 12]”, the dissociation constant Kd in data set [5] is 24 µM. Consider `CC[C@H](C)[C@H](NC(=O)[C@H](CCCCN)NC(=O)[C@H](CCCCN)NC(=O)[C@@H](NC(=O)[C@H](Cc1ccc(O)cc1)NC(=O)[C@H](CCC(=O)O)NC(=O)[C@H](CCC(=O)O)NC(=O)[C@@H](NC(=O)[C@H](CCCCN)NC(=O)[C@H](CCCCN)NC(=O)[C@H](CC(=O)O)NC(=O)[C@H](Cc1c[nH]c2ccccc12)NC(=O)[C@H](CCC(=O)O)NC(=O)[C@H](CCC(=O)O)NC(=O)[C@H](Cc1c[nH]c2ccccc12)N1CC=CCCC(=O)N[C@@H](CCSC)C(=O)N[C@@H]([C@@H](C)O)C1=O)[C@@H](C)CC)[C@@H](C)O)C(N)=O` [compound 9, XMTWEEWDKKIEEYTKKI], for which the EC50 (as a rule, the concentration giving half of the maximal effect) in data set [2] (overnight coculture at 37° C., β-galactosidase readout, read-out: EC50, inhibition of gp41-mediated cell fusion) was determined as 43 µM.

Regarding “XMTWMEWDREINNYT ({4‑pentenoyl}-MTWMEWDREINNYT; staple (positions not given here); also: hydrogen bond surrogate, N-allyl residue position not given here) [compound 2]”, in data set [1], the “Binding to IZN17, result in words” value is reported as “did not bind the target protein with higher affinity”.
